In patent publication US20230135608A1 (CURACLE CO., LTD., priority 2021, published 2023):
Structures can show the parent of a compound that is named as a salt.

How the values were obtained:
Nrf2 = conditions: cited from earlier work
AD-293 cells = conditions: cited from earlier work
NRK-49F cells = conditions: DMF 40 μmol/1, semi-quantitative RT-PCR; cited from earlier work
[1] = tested on: RMCs and rat glomerular mesangial cells; conditions: cited from earlier work
[2] = tested on: UUO-induced renal fibrosis model; conditions: cited from earlier work
[3] = tested on: streptozotocin (STZ, 150 mg/kg)-induced diabetic nephropathy mouse model; assay: UUO renal fibrosis and streptozotocin-induced diabetic nephropathy mouse models; type: in vivo; conditions: UUO and STZ (150 mg/kg) mouse models
Procedure: As a result, it was confirmed that a dose of 25 mg/kg was effective for diabetic nephropathy. When the dose confirmed in the animal model is converted into HED (Human Equivalent Dose), it is calculated as follows. HED=Animal dose in mg/kg×{Animal weight in kg/Human weight in kg}×60 kg=25 mg/kg×0.08×60 kg=120 mg

NRK-49F and RMC cells = conditions: cited from earlier work
[4] = tested on: rat renal fibroblast cell line (NRK-49F); conditions: cited from earlier work
[5] = tested on: TGF-β/Smad signaling and ECM expression; conditions: chemical inhibitor of NQO1 or HO-1 added to DMF; cited from earlier work
[6] = cited from earlier work

COC(=O)/C=C/C(=O)OC [DMF, Dimethyl fumarate]
Nrf2 protein expression (Nrf2; NRK-49F cells): sharp increase | nuclear accumulation of Nrf2 (Nrf2; NRK-49F cells): induced the nuclear accumulation of Nrf2 dose-dependently | expression of Nrf2 protein (Nrf2; RMC cells): rapidly increased | expression of p62 (Nrf2; after DMF treatment): increased 6 h after the DMF treatment and up to 12 hours thereafter | activity of the PAI-1 promoter induced by TGF-β (AD-293 cells; AD-293 cells, PAI-1-Luc reporter): inhibited | activity of the (CAGA)9MLP-Luc promoter induced by TGF-β or ALK5 (AD-293 cells; reporter with 9 copies of the Smad3 binding site): inhibited | expression of NQO1 and HO-1 (NRK-49F cells): increased | TGF-β-induced expression of PAI-1 protein [1]: inhibitory effect | expression of collagen type I, fibronectin, PAI-1 and α-SMA related to fibrosis [2]: decreased the expression of collagen type I, fibronectin, PAI-1 and α-SMA | expression of p-Smad3 increased by UUO [2]: decreased the expression of p-Smad3 | dose effective for diabetic nephropathy [3]: 25 mg/kg | Smad3 phosphorylation induced by TGF-β (NRK-49F and RMC cells): inhibited | collagen type 1 induced by TGF-β (mRNA and protein) ([4]; 24 hours of TGF-β treatment): dose-dependently inhibit | TGF-β-mediated expression of PAI-1, a-SMA, and fibronectin mRNA and protein [4]: inhibited the TGF-β-mediated expression of PAI-1, a-SMA, and fibronectin mRNA and protein dose-dependently

COC1=CC(=O)c2c(c(COc3ccc([N+](=O)[O-])cc3)c(C)n2C)C1=O [ES936]
reversal of the inhibitory effect of DMF on the TGF-β/Smad signaling and ECM expression [5]: did not reverse

COC(=O)/C=C/C(=O)O [MMF, monomethyl fumarate]
detection of MMF after administration ([6]; 24 hours after administration of the drug): not detected 24 hours after administration | elimination half-life of MMF ([6]; in vivo): about 1 hour | accumulation of MMF in the body ([6]; repeated administration): does not accumulate in the body even after repeated administration
